{
  "source": "patent US12721840B2",
  "about": "“Methods of treating glioblastoma multiforme using combination therapy” (MediciNova, Inc., priority 2021, dated 2026)",
  "key": {"[1]": {"tested_on": "GBM orthotopic tumors (SB28 cells)", "assay": "Murine GBM model: survival of mice bearing orthotopic syngeneic SB28 tumors", "type": "in vivo", "details": "syngeneic mouse model, 20,000 SB28 cells; ibudilast 50 mg/kg, anti-PD1 25 μg/dose; 3 intraperitoneal injections 3 days apart from day 7 post-engraftment; n=10 male mice/group; control 17 days", "protocol": "FIGURE depicts results from a murine glioblastoma model (ibudilast treatment in a syngeneic mouse model (20,000 SB28 cells) synergized with anti-PD1), in which mice are treated with ibudilast, an anti-PD-1 antibody, or a combination of ibudilast and an anti-PD-1 antibody. Isotype serves as negative control for the anti-PD-1 antibody and vehicle serves as negative control for ibudilast. Treatment was initiated at day 7 post-engraftment with 3 intraperitoneal injections 3 days apart; n=10 mice/group (male); median survival provided for each group, *p<0.05, **p<0.01, ***p<0.001 as assessed by log-rank (colored stars indicate comparison to each control group).\nMice bearing GBM orthotopic tumors were subjected to treatment with a PD-1 antibody in the presence or absence of ibudilast (or to ibudilast alone) and evaluated for their survival after the start of treatment. More particularly, ibudilast treatment (50 mg/kg) was performed in a syngeneic mouse model (20,000 SB28 cells) synergized with anti-PD1 (25 μg/dose). Treatment was initiated at day 7 post-engraftment with 3 intraperitoneal injections 3 days apart; n=10 mice/group (male)."}, "[2]": {"details": "literature statement (Sanftner et al Xenobiotica 2009; Chen et al. 2002); cited from earlier work"}},
  "data": [
    {"smiles": "CC(C)C(=O)c1c(C(C)C)nn2ccccc12", "note": "[Ibudilast, 3-isobutyryl-2-isopropylpyrazolo[1,5-a]pyridine]", "values": [
      {"measurement": "median survival", "setting": "[1]", "result": "did not impact median survival"},
      {"measurement": "penetration into the central nervous system (CNS)", "setting": "[2]", "result": "good CNS penetration"}
    ]},
    {"smiles": "COc1ccc(C2CNC(=O)C2)cc1OC1CCCC1", "note": "(stereo not drawn) [rolipram]", "values": [
      {"measurement": "penetration into the central nervous system (CNS)", "setting": "[2]", "result": "poor penetration into the central nervous system"}
    ]}
  ]
}
